Data: patent US20230146455A1, “TREATMENT OF INFLAMMATORY DISEASES WITH PEPTIDES AND PHARMACEUTICAL COMPOSITIONS” (Yuyu Pharma, Inc., priority 2020, published 2023)
Values joined by “and” are separate entries in the source; they are usually repeats but may differ in a detail not shown here. Equal entries are not always repeated. Where a SMILES comes first, the peptide text is derived from it. [ ]: non-standard residue; d: D form. Hyp = O=C(O)[C@@H]1C[C@@H](O)CN1

What was measured:
[1] = tested on: Fas Ligand; assay: Example 9 Luminex, LPS hPBMCs: Fas Ligand; assay type: cell-based, human; settings: for Fas Ligand Concentration / Fas Ligand conc/live cell / MFI, bead Fas Ligand: single replicates
Description: (§1) Treatment Human PBMCs were pretreated with YY-101, YDE-011 and YDE-043 or reference compound; Xiidra® at various concentration (ranging from 1 nM to 100 uM) for 2 h before stimulation. An equal volume of 0.5% DMSO was used as a vehicle control. Then, the cells were treated with LPS at 5 ug/ml. The supernatants from treated cells were harvested at 24 h and placed in a 96 well for Luminex cytokine & chemokine profiling using a Luminex 200 multiplex assay (Luminex; R&D system, USA).
(§2) The main study arm with triplicate wells per group in a 24-well plate: • 1. Blank • 2. PBMC: 0.5% DMSO • 3. PBMC+LPS (5 ug/ml) • 4. PBMC+YY-101 100 uM • 5. PBMC+YY-101 10 uM • 6. PBMC+YY-101 1 uM • 7. PBMC+YY-101 0.1 uM • 8. PBMC+YY-101 0.01 uM • 9. PBMC+LPS (5 ug/ml)+Xiidra®100 uM • 10. PBMC+LPS (5 ug/ml)+Xiidra® 10 uM • 11. PBMC+LPS (5 ug/ml)+Xiidra® 1 uM • 12. PBMC+LPS (5 ug/ml)+Xiidra®0.1 uM • 13. PBMC+LPS (5 ug/ml)+Xiidra®0.01 uM • 14. PBMC+LPS (5 ug/ml)+Xiidra®0.001 uM • 15. PBMC+LPS (5 ug/ml)+YY-101 100 uM • 16. PBMC+LPS (5 ug/ml)+YY-101 10 uM • 17. PBMC+LPS (5 ug/ml)+YY-101 1 uM • 18. PBMC+LPS (5 ug/ml)+YY-101 0.1 uM • 19. PBMC+LPS (5 ug/ml)+YY-101 0.01 uM • 20. PBMC+LPS (5 ug/ml)+YY-101 0.001 uM • 21. PBMC+LPS (5 ug/ml)+YDE-011 100 uM • 22. PBMC+LPS (5 ug/ml)+YDE-011 10 uM • 23. PBMC+LPS (5 ug/ml)+YDE-011 1 uM • 24. PBMC+LPS (5 ug/ml)+YDE-011 0.1 uM • 25. PBMC+LPS (5 ug/ml)+YDE-011 0.01 uM • 26. PBMC+LPS (5 ug/ml)+YDE-011 0.001 uM • 27. PBMC+LPS (5 ug/ml)+YDE-043 100 uM • 28. PBMC+LPS (5 ug/ml)+YDE-043 10 uM • 29. PBMC+LPS (5 ug/ml)+YDE-043 1 uM • 30. PBMC+LPS (5 ug/ml)+YDE-043 0.1 uM • 31. PBMC+LPS (5 ug/ml)+YDE-043 0.01 uM • 32. PBMC+LPS (5 ug/ml)+YDE-043 0.001 uM
(§3) Multiplex assay was used to measure 30 cytokines and chemokines. The 1:2, 1:10 and 1:200 diluted cell supernatant and serial dilution of the standard were dispensed into a 96 well plate at 50 ul/well. Then, the pre-mixed cocktail of antibody-coated magnetic beads was dispensed at 50 ul/well and incubated at room temperature for 2 h in a horizontal orbital microplate shaker at 800±500 rpm. The beads were washed using a magnetic device to prevent loss. The biotin-antibody was dispensed in 50 ul of each well and incubated at room temperature for 1 h in a shaker at 800±500 rpm. After washing, streptavidin-PE was added at 50 ul/well and incubated at room temperature for 30 min in a shaker under the same conditions. Finally, after washing, wash buffer (100 ul/well) was added to the plate and incubated in a shaker for 2 min. The Luminex™ 200 setting were set according to the manufacturer's protocol. The data was calculated with a standard five-parameter logistic nonlinear regression analysis of the data (xPonent software 4.2, USA). The levels of cytokine/chemokine are normalized to the live cell counts (1×10^5 cells/mL) and presented as concentrations per mL (pg/mL or ng/mL).

[2] = tested on: MMP-9; assay: Example 9 Luminex, LPS hPBMCs: MMP-9; assay type: cell-based, human
Description: as §1, §2, §3

[3] = PBMC + LPS(5 ug/ml) + test article 0.001 uM
[4] = PBMC + LPS(5 ug/ml) + test article 0.01 uM
[5] = PBMC + LPS(5 ug/ml) + test article 0.1 uM
[6] = PBMC + LPS(5 ug/ml) + test article 1 uM
[7] = PBMC + LPS(5 ug/ml) + test article 10 uM
[8] = PBMC + LPS(5 ug/ml) + test article 100 uM
[9] = PBMC + LPS(5 ug/ml) + 0.001 uM, Mean
[10] = PBMC + LPS(5 ug/ml) + 0.001 uM, single replicates
[11] = PBMC + LPS(5 ug/ml) + 0.01 uM, Mean
[12] = PBMC + LPS(5 ug/ml) + 0.01 uM, single replicates
[13] = PBMC + LPS(5 ug/ml) + 0.1 uM, Mean
[14] = PBMC + LPS(5 ug/ml) + 0.1 uM, single replicates
[15] = PBMC + LPS(5 ug/ml) + 1 uM, Mean
[16] = PBMC + LPS(5 ug/ml) + 1 uM, single replicates
[17] = PBMC + LPS(5 ug/ml) + 10 uM, Mean
[18] = PBMC + LPS(5 ug/ml) + 10 uM, single replicates
[19] = PBMC + LPS(5 ug/ml) + 100 uM, Mean
[20] = PBMC + LPS(5 ug/ml) + 100 uM, single replicates

With `CC(C)C[C@H](NC(=O)[C@H](CCC(N)=O)NC(=O)CNC(=O)[C@@H]1C[C@@H](O)CN1)C(=O)NCC(=O)O` [YDE-043] (H-[Hyp]GQLG-OH; N-terminus and C-terminus assumed) the “Fas Ligand Concentration, Mean” value [1, 3] was 16.8 pg/mL, the “Fas Ligand conc/live cell, Mean” value [1, 3] was 3.4 pg/10^5 and the “MFI, bead Fas Ligand, Mean” value [1, 3] was 22.7. For the same compound, the “Fas Ligand Concentration” value [1, 3] was 17.1 pg/mL and 20.4 pg/mL and 13.1 pg/mL, the “Fas Ligand conc/live cell” value [1, 3] was 3.9 pg/10^5 and 3.4 pg/10^5 and 2.8 pg/10^5 and the “MFI, bead Fas Ligand” value [1, 3] was 23.0 and 28.0 and 17.0. The “Fas Ligand Concentration, Mean” value [1, 4] was 21.9 pg/mL, the “Fas Ligand conc/live cell, Mean” value [1, 4] was 4.3 pg/10^5 and the “MFI, bead Fas Ligand, Mean” value [1, 4] was 30.2. The “Fas Ligand Concentration” value [1, 4] was 19.1 pg/mL and 15.7 pg/mL and 31.0 pg/mL, the “Fas Ligand conc/live cell” value [1, 4] was 4.2 pg/10^5 and 2.4 pg/10^5 and 6.2 pg/10^5 and the “MFI, bead Fas Ligand” value [1, 4] was 26.0 and 21.0 and 43.5. The “Fas Ligand Concentration, Mean” value [1, 5] was 13.2 pg/mL, the “Fas Ligand conc/live cell, Mean” value [1, 5] was 2.5 pg/10^5 and the “MFI, bead Fas Ligand, Mean” value [1, 5] was 17.2. For the same compound, the “Fas Ligand Concentration” value [1, 5] was 14.4 pg/mL and 12.7 pg/mL and 12.4 pg/mL, the “Fas Ligand conc/live cell” value [1, 5] was 2.9 pg/10^5 and 2.3 pg/10^5 and 2.2 pg/10^5 and the “MFI, bead Fas Ligand” value [1, 5] was 19.0 and 16.5 and 16.0. The “Fas Ligand Concentration, Mean” value [1, 6] was 16.6 pg/mL, the “Fas Ligand conc/live cell, Mean” value [1, 6] was 3.2 pg/10^5 and the “MFI, bead Fas Ligand, Mean” value [1, 6] was 22.3. For the same compound, the “Fas Ligand Concentration” value [1, 6] was 13.7 pg/mL and 15.7 pg/mL and 20.4 pg/mL, the “Fas Ligand conc/live cell” value [1, 6] was 2.4 pg/10^5 and 3.3 pg/10^5 and 3.9 pg/10^5 and the “MFI, bead Fas Ligand” value [1, 6] was 18.0 and 21.0 and 28.0. The “Fas Ligand Concentration, Mean” value [1, 7] was 16.4 pg/mL, the “Fas Ligand conc/live cell, Mean” value [1, 7] was 3.0 pg/10^5 and the “MFI, bead Fas Ligand, Mean” value [1, 7] was 22.0. The “Fas Ligand Concentration” value [1, 7] was 16.4 pg/mL and 17.1 pg/mL and 15.7 pg/mL, the “Fas Ligand conc/live cell” value [1, 7] was 3.2 pg/10^5 (2×) and 2.8 pg/10^5 and the “MFI, bead Fas Ligand” value [1, 7] was 22.0 and 23.0 and 21.0. For the same compound, the “Fas Ligand Concentration, Mean” value [1, 8] was 13.2 pg/mL, the “Fas Ligand conc/live cell, Mean” value [1, 8] was 2.1 pg/10^5 and the “MFI, bead Fas Ligand, Mean” value [1, 8] was 17.3. The “Fas Ligand Concentration” value [1, 8] was 15.0 pg/mL and 11.4 pg/mL, the “Fas Ligand conc/live cell” value [1, 8] was 2.4 pg/10^5 and 1.8 pg/10^5 and the “MFI, bead Fas Ligand” value [1, 8] was 20.0 and 14.5. For the same compound, the “MMP-9 Concentration” value [2, 9] was 222.6 pg/mL, the MMP-9 conc/live cell [2, 9] was 45.0 pg/10^5 and the “MMP-9 Concentration” value [2, 10] was 170.9 pg/mL and 234.0 pg/mL and 262.8 pg/mL. For the same compound, the MMP-9 conc/live cell [2, 10] was 38.8 pg/10^5 and 39.0 pg/10^5 and 57.1 pg/10^5, the “MMP-9 Concentration” value [2, 11] was 186.3 pg/mL and the MMP-9 conc/live cell [2, 11] was 35.6 pg/10^5. The “MMP-9 Concentration” value [2, 12] was 180.2 pg/mL and 186.3 pg/mL and 192.4 pg/mL, the MMP-9 conc/live cell [2, 12] was 40.0 pg/10^5 and 28.2 pg/10^5 and 38.5 pg/10^5 and the “MMP-9 Concentration” value [2, 13] was 173.9 pg/mL. The MMP-9 conc/live cell [2, 13] was 32.4 pg/10^5, the “MMP-9 Concentration” value [2, 14] was 192.4 pg/mL and 155.2 pg/mL and 174.0 pg/mL and the MMP-9 conc/live cell [2, 14] was 38.5 pg/10^5 and 27.7 pg/10^5 and 31.1 pg/10^5. The “MMP-9 Concentration” value [2, 15] was 178.0 pg/mL, the MMP-9 conc/live cell [2, 15] was 33.5 pg/10^5 and the “MMP-9 Concentration” value [2, 16] was 198.5 pg/mL and 155.2 pg/mL and 180.2 pg/mL. For the same compound, the MMP-9 conc/live cell [2, 16] was 34.2 pg/10^5 and 32.3 pg/10^5 and 34.0 pg/10^5, the “MMP-9 Concentration” value [2, 17] was 189.3 pg/mL and the MMP-9 conc/live cell [2, 17] was 35.1 pg/10^5. The “MMP-9 Concentration” value [2, 18] was 198.5 pg/mL and 192.4 pg/mL and 177.1 pg/mL, the MMP-9 conc/live cell [2, 18] was 38.2 pg/10^5 and 35.6 pg/10^5 and 31.6 pg/10^5 and the “MMP-9 Concentration” value [2, 19] was 139.0 pg/mL. The MMP-9 conc/live cell [2, 19] was 22.1 pg/10^5, the “MMP-9 Concentration” value [2, 20] was 148.8 pg/mL and 129.2 pg/mL and the MMP-9 conc/live cell [2, 20] was 24.0 pg/10^5 and 20.2 pg/10^5.
